These results are taken from patent US5399487A, “6-peptidylamino-1-naphthalenesulfonamides useful as fluorogenic proteolytic enzyme substrates” (Haematologic Technologies, Inc., priority 1993, dated 1995).

In general, Km refers to the concentration of substrate that gives half-maximal velocity.

The target in data set [1] is tissue plasminogen activator (t-PA) (Homo sapiens, UniProt P00750). Put plainly: Fluorogenic enzyme assay (Example 5). The format is biochemical. The conditions noted are these: enzyme 100 nM, substrate 1 μM; for hydrolysis, t-PA (symbol N.D.): after 24 hrs. On the procedure:
(§1) Enzyme assays (except factor VIIa assays, see below) were conducted in 20 mM Tris, 150 mM NaCl, pH 7.4 (TBS) at room temperature (22° C.). The final volume for all reaction mixtures was 2.0 ml. Fluorogenic substrates were dissolved in DMSO to a stock concentration of 10 mM. The 10 mM stock solution was diluted in TBS to the final working concentration prior to all assays. Enzyme was added to mixtures containing buffer components and substrate and the initial rate of substrate hydrolysis was measured as the change in fluorescent intensity over time, corresponding to the generation of the particular 6-amino-1-naphthalenesulfonamide fluorophore from the provided substrate. Quantitation of substrate hydrolysis was accomplished by establishing a standard curve from the appropriate fluorescent moiety. Fluorescence was monitored (continuously or discontinuously) using a Perkin Elmer fluorescence spectrophotometer, model MPF-44A, equipped with a standard chart recorder. The fluorophore was detected using monochrometers set at an excitation wavelength of 352 nm and an emission wavelength of 470 nm. Light scattering artifacts were minimized using a 399 nm cut off filter in the emission light beam.
(§2) The kinetic constants of substrate hydrolysis were determined using the non-linear least squares regression analysis program ENZFITTER (Cambridge, UK). This program was used to iteratively fit initial rates of substrate hydrolysis to the Michaelis-Menten equation and the kinetic constants of substrate hydrolysis (Km) and (kcat) were calculated.

For the next data set, the target named is plasmin (Plm) (Homo sapiens, UniProt P00747). Nature of the data set: Fluorogenic enzyme assay (Example 5). The conditions noted are these: enzyme 100 nM, substrate 1 μM; for Time (min) for 5% hydrolysis, Plm: footnote b. Type of data set: biochemical. On the procedure: as §1, §2
plasmin (Plm), sequence (P00747 581-810 limits assumed, species assumed): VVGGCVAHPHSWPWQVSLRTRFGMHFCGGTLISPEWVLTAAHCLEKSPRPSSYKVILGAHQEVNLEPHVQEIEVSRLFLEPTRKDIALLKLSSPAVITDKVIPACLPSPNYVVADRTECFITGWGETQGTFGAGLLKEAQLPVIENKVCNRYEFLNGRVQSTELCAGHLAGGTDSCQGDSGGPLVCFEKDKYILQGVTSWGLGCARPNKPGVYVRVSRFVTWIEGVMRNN
plasmin (Plm), sequence (P00747 97-580 limits assumed, species assumed): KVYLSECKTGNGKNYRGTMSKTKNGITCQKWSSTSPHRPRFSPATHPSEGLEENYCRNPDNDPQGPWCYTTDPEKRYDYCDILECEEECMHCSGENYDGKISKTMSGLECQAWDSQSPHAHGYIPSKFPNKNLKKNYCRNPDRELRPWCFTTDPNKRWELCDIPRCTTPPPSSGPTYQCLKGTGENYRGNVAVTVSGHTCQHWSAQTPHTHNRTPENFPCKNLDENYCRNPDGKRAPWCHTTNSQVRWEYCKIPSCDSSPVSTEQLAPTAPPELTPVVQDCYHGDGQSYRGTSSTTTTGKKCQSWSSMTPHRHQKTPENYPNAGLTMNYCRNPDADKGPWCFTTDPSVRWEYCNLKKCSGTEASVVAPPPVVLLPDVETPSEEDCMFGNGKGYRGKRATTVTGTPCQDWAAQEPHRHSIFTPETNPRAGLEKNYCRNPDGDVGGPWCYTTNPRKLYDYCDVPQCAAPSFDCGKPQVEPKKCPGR
The target of the next data set is urokinase (u-PA) (Homo sapiens, UniProt P00749). Put plainly: Fluorogenic enzyme assay (Example 5). Type of data set: biochemical. The conditions noted are these: enzyme 100 nM, substrate 1 μM; for hydrolysis, u-PA (symbol N.D.): after 24 hrs. On the procedure: as §1, §2
The next data set concerns the target T1, thrombin (IIa) (Homo sapiens, UniProt P00734).
T1 construct: 0.5 nM human thrombin (IIa)
Nature of the data set: Fluorogenic enzyme assay (Example 5). The format is biochemical. Details: key to Hydrolysis kinetic constants, IIa (symbol b): Slow substrate hydrolysis, no kinetic constants calculated. To be noted: for Hydrolysis kinetic constants, IIa (symbol b) / Km / kcat /Km, IIa / kcat, IIa: Table 7; for Time (min) for 10% hydrolysis, IIa: enzyme 100 nM, substrate 1 μM. On the procedure: as §1, §2

In another data set the target is factor Xa (Homo sapiens, UniProt P00742). Nature of the data set: Fluorogenic enzyme assay (Example 5). Type of data set: biochemical. To be noted: for Km / kcat /Km, Xa / kcat, Xa: Table 7; for Time (min) for 10% hydrolysis, Xa: enzyme 100 nM, substrate 1 μM. On the procedure:
as §1, §2

Data set [2] concerns the target activated protein C (APC) (Homo sapiens, UniProt P04070). Nature of the data set: Fluorogenic enzyme assay (Example 5). To be noted: for Hydrolysis kinetic constants, APC (symbol b) / Km / kcat /Km, APC / kcat, APC: Table 7; for Time (min) for 10% hydrolysis, APC: enzyme 100 nM, substrate 1 μM. Details: key to Hydrolysis kinetic constants, APC (symbol b): Slow substrate hydrolysis, no kinetic constants calculated. Type of data set: biochemical. On the procedure: as §1, §2

The nature of data set [3]: Fluorescence of 6-amino-1-naphthalenesulfonamides and substrates. To be noted: for Relative Fluorescence: TBS, pH 7.4, 22°C., 1 μM, relative to ANSNH(i-C4 H9), excitation 352 nm, emission 470 nm; for Emission Maxima: free fluorophore. Type of data set: physicochemical. An excerpt:
Each of the 6-amino-1-naphthalenesulfonamide detecting groups, i.e., the free fluorophores, have excitation maxima near 350 nm with emission maxima ranging from 465 to 476 nm. Fluorescent measurements show a 2.2 fold range in the intensities of the fluorescent signals among the fifteen synthesized compounds. The 6-peptidylamino-1-naphthalenesulfonamide fluorogenic substrates have a relative fluorescent intensity at 470 nm which is less than 0.1% of that of the respective free fluorophore. Detection of the free fluorophore can be reliably achieved (>2× background) at a concentration of about 10^-9 M in the presence of about 10^-6 fluorogenic substrate.
^a Measured in TBS, pH 7.4. 22°C.. Concentration of ANSNR
R2 = 1 μM. Fluorescence is expressed relative of ANSNH(i-C4
H9). Excitation wavelength = 352 nm, Emission wavelength = 470 nm.

tissue plasminogen activator (t-PA), sequence (P00750 36-562, species assumed): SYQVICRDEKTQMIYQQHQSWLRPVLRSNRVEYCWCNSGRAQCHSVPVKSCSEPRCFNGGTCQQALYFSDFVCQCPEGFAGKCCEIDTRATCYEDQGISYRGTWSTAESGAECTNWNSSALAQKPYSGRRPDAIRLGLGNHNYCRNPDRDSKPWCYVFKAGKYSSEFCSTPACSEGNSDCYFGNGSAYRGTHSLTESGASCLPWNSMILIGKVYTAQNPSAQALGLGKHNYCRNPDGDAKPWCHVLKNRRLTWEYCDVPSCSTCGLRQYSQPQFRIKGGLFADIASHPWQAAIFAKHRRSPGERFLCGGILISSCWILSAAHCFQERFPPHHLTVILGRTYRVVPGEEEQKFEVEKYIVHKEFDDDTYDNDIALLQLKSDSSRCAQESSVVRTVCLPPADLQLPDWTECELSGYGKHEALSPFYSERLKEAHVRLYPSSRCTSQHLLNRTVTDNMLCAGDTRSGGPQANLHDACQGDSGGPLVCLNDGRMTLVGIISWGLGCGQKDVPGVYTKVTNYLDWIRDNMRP
activated protein C (APC), sequence (P04070 212-461 limits assumed): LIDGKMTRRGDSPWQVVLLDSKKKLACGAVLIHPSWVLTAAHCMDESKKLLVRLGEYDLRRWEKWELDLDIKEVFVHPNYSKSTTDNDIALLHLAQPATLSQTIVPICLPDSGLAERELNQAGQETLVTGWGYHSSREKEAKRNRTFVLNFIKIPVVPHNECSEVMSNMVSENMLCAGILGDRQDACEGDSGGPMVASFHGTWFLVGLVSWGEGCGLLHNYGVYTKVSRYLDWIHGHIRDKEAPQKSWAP
activated protein C (APC), sequence (P04070 43-197 limits assumed): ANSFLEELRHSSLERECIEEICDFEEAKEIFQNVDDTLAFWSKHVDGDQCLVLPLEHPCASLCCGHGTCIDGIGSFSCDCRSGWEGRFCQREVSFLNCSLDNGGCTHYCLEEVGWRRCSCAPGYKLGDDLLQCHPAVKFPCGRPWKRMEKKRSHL
factor Xa, sequence (P00742 235-488 limits assumed): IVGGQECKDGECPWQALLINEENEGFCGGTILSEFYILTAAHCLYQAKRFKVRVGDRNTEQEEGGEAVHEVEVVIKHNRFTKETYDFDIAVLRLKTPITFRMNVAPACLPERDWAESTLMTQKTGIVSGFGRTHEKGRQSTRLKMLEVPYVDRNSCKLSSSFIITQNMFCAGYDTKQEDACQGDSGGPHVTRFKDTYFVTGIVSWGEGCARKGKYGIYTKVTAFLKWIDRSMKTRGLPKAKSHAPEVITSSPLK
factor Xa, sequence (P00742 41-179 limits assumed): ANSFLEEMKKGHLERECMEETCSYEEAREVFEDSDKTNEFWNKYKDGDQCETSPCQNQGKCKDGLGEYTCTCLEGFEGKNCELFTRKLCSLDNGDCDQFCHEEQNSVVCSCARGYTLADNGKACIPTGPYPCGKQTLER

Consider `Br.N=C(N)NCCC[C@H](NC(=O)OCc1ccccc1)C(=O)Nc1ccc2c(S(=O)(=O)N3CCCCCC3)cccc2c1` [(N^α -Z)ArgANSNR1 R2; (CH2)6], for which the “hydrolysis, t-PA (symbol N.D.)” value in data set [1] is on record as “N.D. (Less than 5% hydrolysis after 24 hrs.)”. In addition, the “Time (min) for 5% hydrolysis, Plm” value on plasmin (Plm) amounted to 770 min. Besides, the “hydrolysis, u-PA (symbol N.D.)” value on urokinase (u-PA) is “N.D. (Less than 5% hydrolysis after 24 hrs.)”. For the same compound, at thrombin (IIa), the “Hydrolysis kinetic constants, IIa (symbol b)” value was “b” and the “Time (min) for 10% hydrolysis, IIa” value is 90 min. In addition, on factor Xa, the Km was 427 µM; the “kcat /Km, Xa” value was 293 M⁻¹ s⁻¹; the “kcat, Xa” value was 0.13 s⁻¹; the “Time (min) for 10% hydrolysis, Xa” value is 20 min. In addition, in data set [2], the “Hydrolysis kinetic constants, APC (symbol b)” value was “b” and the “Time (min) for 10% hydrolysis, APC” value is reported as 813 min.
With `Br.CCN(CC)S(=O)(=O)c1cccc2cc(NC(=O)[C@H](CCCNC(=N)N)NC(=O)OCc3ccccc3)ccc12` [(N^α -Z)ArgANSNR1 R2; C2 H5; C2 H5, 6-(N^α -benzyloxycarbonyl-L-arginyl)amino-1-(N,N-diethyl)napthalenesulfonamide hydrobromides], the “hydrolysis, t-PA (symbol N.D.)” value in data set [1] is on record as “N.D. (Less than 5% hydrolysis after 24 hrs.)”. Also, the “Time (min) for 5% hydrolysis, Plm” value on plasmin (Plm) is 1370 min. Also, the “hydrolysis, u-PA (symbol N.D.)” value on urokinase (u-PA) is given as “N.D. (Less than 5% hydrolysis after 24 hrs.)”. Also, on thrombin (IIa), the “Hydrolysis kinetic constants, IIa (symbol b)” value is reported as “b” and the “Time (min) for 10% hydrolysis, IIa” value was 165 min. At factor Xa, the Km is 200 µM; the “kcat /Km, Xa” value was 1290 M⁻¹ s⁻¹; the “kcat, Xa” value is 0.26 s⁻¹; the “Time (min) for 10% hydrolysis, Xa” value was 14 min. The “Time (min) for 10% hydrolysis, APC” value in data set [2] is 1080 min.
Turning to `Br.CN(C)S(=O)(=O)c1cccc2cc(NC(=O)[C@H](CCCNC(=N)N)NC(=O)OCc3ccccc3)ccc12` [(N^α -Z)ArgANSNR1 R2; CH3; CH3], in data set [1], the “hydrolysis, t-PA (symbol N.D.)” value is “N.D. (Less than 5% hydrolysis after 24 hrs.)”. For the same compound, the “Time (min) for 10% hydrolysis, Plm” value at plasmin (Plm) was 1140 min. Also, the “hydrolysis, u-PA (symbol N.D.)” value at urokinase (u-PA) is “N.D. (Less than 5% hydrolysis after 24 hrs.)”. Further, on thrombin (IIa), the Michaelis-Menten constant (Km) is 22.6 µM; the “kcat /Km, IIa” value was 630 M⁻¹ s⁻¹; the “kcat, IIa” value was 0.01 s⁻¹; the “Time (min) for 10% hydrolysis, IIa” value was 45 min. Besides, on factor Xa, the Km is 91.4 µM; the “kcat /Km, Xa” value is 1020 M⁻¹ s⁻¹; the “kcat, Xa” value is 0.09 s⁻¹; the “Time (min) for 10% hydrolysis, Xa” value is recorded as 15 min. Besides, in data set [2], the “Hydrolysis kinetic constants, APC (symbol b)” value is “b” and the “Time (min) for 10% hydrolysis, APC” value was 200 min.
`Br.CCCNS(=O)(=O)c1cccc2cc(NC(=O)[C@H](CCCNC(=N)N)NC(=O)OCc3ccccc3)ccc12` [(N^α -Z)ArgANSNR1 R2; H; C3 H7]: in data set [1], the “hydrolysis, t-PA (symbol N.D.)” value was “N.D. (Less than 5% hydrolysis after 24 hrs.)”. Also, the “Time (min) for 5% hydrolysis, Plm” value on plasmin (Plm) is recorded as 1620 min. Further, the “Time (min) for 10% hydrolysis, u-PA” value on urokinase (u-PA) stood at 220 min. At thrombin (IIa), the Km was 22.2 µM; the “kcat /Km, IIa” value was 1580 M⁻¹ s⁻¹; the “kcat, IIa” value was 0.04 s⁻¹; the “Time (min) for 10% hydrolysis, IIa” value was 27 min. For the same compound, at factor Xa, the Km is 125 µM; the “kcat /Km, Xa” value is 593 M⁻¹ s⁻¹; the “kcat, Xa” value was 0.07 s⁻¹; the “Time (min) for 10% hydrolysis, Xa” value was 40 min. In data set [2], the Michaelis-Menten constant (Km) is 320 µM; the “kcat /Km, APC” value is 1470 M⁻¹ s⁻¹; the “kcat, APC” value was 0.47 s⁻¹; the “Time (min) for 10% hydrolysis, APC” value is 15 min.
For `Br.CCCCCNS(=O)(=O)c1cccc2cc(NC(=O)[C@H](CCCNC(=N)N)NC(=O)OCc3ccccc3)ccc12` [(N^α -Z)ArgANSNR1 R2; H; C5 H11], in data set [1] (footnote b), the “Time (min) for 5% hydrolysis, t-PA” value is reported as 1280 min. For the same compound, the “Time (min) for 10% hydrolysis, Plm” value at plasmin (Plm) is listed as 510 min. Further, the “Time (min) for 10% hydrolysis, u-PA” value at urokinase (u-PA) is listed as 43 min. In addition, on thrombin (IIa), the Michaelis constant (Km) was 41.4 µM; the “kcat /Km, IIa” value was 242 M⁻¹ s⁻¹; the “kcat, IIa” value is 0.01 s⁻¹; the “Time (min) for 10% hydrolysis, IIa” value was 30 min. On factor Xa, the Michaelis constant (Km) is 36.8 µM; the “kcat /Km, Xa” value is 979 M⁻¹ s⁻¹; the “kcat, Xa” value is 0.04 s⁻¹; the “Time (min) for 10% hydrolysis, Xa” value is 45 min. Moreover, in data set [2], the Km is 436 µM; the “kcat /Km, APC” value was 1830 M⁻¹ s⁻¹; the “kcat, APC” value was 0.8 s⁻¹; the “Time (min) for 10% hydrolysis, APC” value is reported as 12 min.
With `Nc1ccc2c(S(=O)(=O)N3CCCCC3)cccc2c1` [ANSNR1 R2; (CH2)5], in data set [3], the “Relative Fluorescence” value stood at 68 and the “Emission Maxima” value is reported as 473 nm.
As for `Nc1ccc2c(S(=O)(=O)N3CCCCCC3)cccc2c1` [ANSNR1 R2; (CH2)6], in data set [3], the “Relative Fluorescence” value was found to be 96 and the “Emission Maxima” value turned out to be 469 nm.
On to `CCN(CC)S(=O)(=O)c1cccc2cc(N)ccc12` [ANSNR1 R2; C2 H5; C2 H5, 6-amino-1-(N,N-diethyl)naphthalenesulfonamide], for which, in data set [3], the “Relative Fluorescence” value came to 89 and the “Emission Maxima” value is listed as 470 nm.
With `CN(C)S(=O)(=O)c1cccc2cc(N)ccc12` [ANSNR1 R2; CH3; CH3], in data set [3], the “Relative Fluorescence” value is 65 and the “Emission Maxima” value stood at 472 nm.
Turning to `CCNS(=O)(=O)c1cccc2cc(N)ccc12` [ANSNR1 R2; H; C2 H5], in data set [3], the “Relative Fluorescence” value was 78 and the “Emission Maxima” value amounted to 466 nm.
As to `CCCNS(=O)(=O)c1cccc2cc(N)ccc12` [ANSNR1 R2; H; C3 H7], in data set [3], the “Relative Fluorescence” value is recorded as 93 and the “Emission Maxima” value is 470 nm.
As to `CCCCNS(=O)(=O)c1cccc2cc(N)ccc12` [ANSNR1 R2; H; C4 H9], in data set [3], the “Relative Fluorescence” value is 63 and the “Emission Maxima” value turned out to be 467 nm.
In the case of `CCCCCNS(=O)(=O)c1cccc2cc(N)ccc12` [ANSNR1 R2; H; C5 H11], in data set [3], the “Relative Fluorescence” value stood at 90 and the “Emission Maxima” value is given as 469 nm.
Take `CNS(=O)(=O)c1cccc2cc(N)ccc12` [ANSNR1 R2; H; CH3]: in data set [3], the “Relative Fluorescence” value is on record as 92 and the “Emission Maxima” value stood at 468 nm.
Turning to `Nc1ccc2c(S(=O)(=O)NCc3ccccc3)cccc2c1` [ANSNR1 R2; H; benzyl], in data set [3], the “Relative Fluorescence” value amounted to 75 and the “Emission Maxima” value amounted to 467 nm.
Take `Nc1ccc2c(S(=O)(=O)NC3CCCCC3)cccc2c1` [ANSNR1 R2; H; cyclo-C6 H11]: in data set [3], the “Relative Fluorescence” value is 101 and the “Emission Maxima” value came to 466 nm.
Consider `CC(C)NS(=O)(=O)c1cccc2cc(N)ccc12` [ANSNR1 R2; H; i-C3 H7], for which, in data set [3], the “Relative Fluorescence” value is listed as 76 and the “Emission Maxima” value amounted to 468 nm.
In the same order, the values of `CC(C)CNS(=O)(=O)c1cccc2cc(N)ccc12` [ANSNR1 R2; H; i-C4 H9] are 100 and 468 nm.
For the compound `CC(C)(C)NS(=O)(=O)c1cccc2cc(N)ccc12` [ANSNR1 R2; H; t-C4 H9], in data set [3], the “Relative Fluorescence” value stood at 112 and the “Emission Maxima” value is reported as 465 nm.
For the compound `Nc1ccc2c(S(=O)(=O)N3CCOCC3)cccc2c1` [ANSNR1 R2; morpholyl], in data set [3], the “Relative Fluorescence” value is on record as 41 and the “Emission Maxima” value is 476 nm.
